Measurements published in patent publication US4136192A, “4-Hydroxy-3-nitro (cyano) coumarins” (Beecham Group Limited, priority 1975, dated 1979).

The compounds below were run on slow reacting substance of anaphylaxis (SRS-A) (assay: SRS-A antagonism on isolated guinea pig ileum). Settings: isolated guinea pig ileum strips, rat SRS-A, tyrode with atropine and mepyramine; 50% inhibition per method; read-out: SRS-A antagonism on Guinea Pig Ileum: Approximate concentration to give inhibition of a than maximal response to SRS-A.
Set-up: species or system guinea pig ileum (SRS-A from rat)
From the text: The compounds have been evaluated as direct antagonists of slow reacting substance of anaphylaxis (SRS-A) by assay using the isolated guinea pig ileum.
SRS-A rat was obtained from the peritoneal cavity of the rat after passive peritoneal anaphylaxis by a method based on that of R. P. Orange, D. J. Stechschulte and K. F. Austen, J. Immunology, 105 1087 (1970) as described by B. A. Spicer, J. W. Ross and H. Smith, Clin. exp. Immunol. 1975, 21, 419. The sensitizing serum containing reaginic antibody was produced in rats as described by B. A. Spicer, et. al. ibid.
2 ml of a 1 in 5 dilution of the sensitizing serum was injected by the peritoneal route into recipient rats and after 2 hours, 5 ml of tyrode solution containing 0.4 mg/ml ovalbumin (Sigma Grade III) and 50 μg/ml heparin was injected by the same route. Five minutes after challenge the rats were stunned and bled and the peritoneal fluids collected into polycarbonate tubes in ice. After centrifugation at 150 g for 5 minutes the supernatants were combined, heated in a boiling water bath for 5 minutes, cooled and stored at -20° C. The combined peritioneal fluids contained SRS-A and were used in the antagonism studies.
The SRS-A assays were carried out on isolated strips of guinea pig ileum in tyrode solution containing atropine 5 × 10^-7 M and mepyramine 10^-6 M as described by W. E. Brocklehurst, J. Physiology, 151, 416 (1960).
The activity of the antagonists was determined by their ability to reduce submaximal responses induced by SRS-A. The antagonists were added to a 4 ml bath in 0.1 ml volumes in aqueous solution half a minute before the addition of SRS-A and were present during induced contraction. Two or three concentrations of antagonists were used and the percentage inhibition of the SRS-A response plotted against the bath concentration of antagonist. The line of best fit was drawn and the concentration to cause 50% inhibition IC50 read graphically.

Question: For `O=c1oc2ccc(OCCCc3ccccc3)cc2c(O)c1[N+](=O)[O-]` [Example 118, 4-Hydroxy-3-nitro-6-(3-phenylpropoxy) coumarin], which IC50 is on record?
Answer: 1 µM

Question: For `O=c1oc2cc(OCCCOc3ccc(-c4ccccc4)cc3)ccc2c(O)c1[N+](=O)[O-]` [Example 161, 4-Hydroxy-7-(3-[4-phenylphenoxy]propoxy)-3-nitro-coumarin], which IC50 is on record?
Answer: 10 µM

Question: How did the IC50 turn out when `Cc1ccc(OCCCOc2ccc3c(O)c([N+](=O)[O-])c(=O)oc3c2)cc1` [Example 157, 4-Hydroxy-7-(3-[4-methylphenoxy]propoxy)-3-nitrocoumarin] was run?
Answer: 1 µM

Question: With `CC(=O)c1ccc(OCC(O)COc2ccc3c(O)c([N+](=O)[O-])c(=O)oc3c2)cc1O` (centres unmarked) [Example 143, 7-(3-[4-Acetyl-3-hydroxyphenoxy]2-hydroxypropoxy)-4-hydroxy-3-nitrocoumarin] as the compound, how does the IC50 read?
Answer: 10 µM

Question: `O=c1oc2ccc(OCCOc3ccccc3)cc2c(O)c1[N+](=O)[O-]` [Example 125, 4-Hydroxy-3-nitro-6-(2-phenoxyethoxy) coumarin] was tested. Which IC50 did it give?
Answer: 10 µM

Question: `O=c1oc2cc(OCCCCc3ccccc3)ccc2c(O)c1[N+](=O)[O-]` [Example 121, 4-Hydroxy-3-nitro-7-(4-phenylbutoxy) coumarin] was tested. Which IC50 did it give?
Answer: 1 µM

Question: For `O=c1oc2cc(OCCc3ccccc3)ccc2c(O)c1[N+](=O)[O-]` [Example 116, 4-Hydroxy-3-nitro-7-(2-phenylethoxy) coumrin], which IC50 is on record?
Answer: 1 µM

Question: Which IC50 does the source give for `O=c1oc2ccc(OCCCCCOc3ccccc3)cc2c(O)c1[N+](=O)[O-]` [Example 151, 4-Hydroxy-3-nitro-6-(5-phenoxypentoxy)-coumarin] here?
Answer: 1 µM

Question: For `Cc1cccc(OCCCOc2ccc3c(O)c([N+](=O)[O-])c(=O)oc3c2)c1` [Example 156, 4-Hydroxy-7-(3-[3-methylphenoxy]propoxy)-3-nitrocoumarin], which IC50 is on record?
Answer: 1 µM

Question: Which IC50 does the source give for `CCCc1c(OCC(O)COc2ccc3c(O)c([N+](=O)[O-])c(=O)oc3c2)ccc(C(C)=O)c1O` (centres unmarked) [Example 114, 7-(3-[4-Acetyl-3-hydroxy-2-n-propylphenoxy]-2-hydroxypropoxy)-4-hydroxy-3-nitrocoumarin] here?
Answer: 0.01 µM

Question: Which IC50 does the source give for `CC(=O)c1ccc(CCCOc2ccc3c(O)c([N+](=O)[O-])c(=O)oc3c2)cc1` [Example 120, 7-(3-[4-Acetylphenyl]propoxy)-4-hydroxy-3-nitrocoumarin] here?
Answer: 1 µM

Question: How did the IC50 turn out when `CCCc1c(OCCCOc2ccc3c(O)c([N+](=O)[O-])c(=O)oc3c2)ccc(C(C)=O)c1O` [Example 139, 7-(3-[4-Acetyl-3-hydroxy-2-n-propylphenoxy]propoxy)-4-hydroxy-3-nitrocoumarin] was run?
Answer: 0.1 µM

Question: Which IC50 does the source give for `CC(=O)c1ccc(OCC(O)COc2ccc3c(O)c([N+](=O)[O-])c(=O)oc3c2)c(C)c1O` (centres unmarked) [Example 144, 7-(3-[4-Acetyl-3-hydroxy-2-methyl-phenoxy]-2-hydroxy-propoxy)-4-hydroxy-3-nitrocoumarin] here?
Answer: 0.1 µM

Question: Which IC50 does the source give for `CC(=O)c1ccc(OCCCOc2ccc3c(O)c([N+](=O)[O-])c(=O)oc3c2)cc1O` [Example 138, 7-(3-[4-Acetyl-3-hydroxyphenoxy]propoxy)-4-hydroxy-3-nitrocoumarin] here?
Answer: 1 µM

Question: For `CCCc1ccccc1OCC(O)COc1ccc2c(O)c([N+](=O)[O-])c(=O)oc2c1` (centres unmarked) [Example 163, 4-Hydroxy-7-(2-hydroxy3-[2-n-propylphenoxy]propoxy)-3-nitro-coumarin], which IC50 is on record?
Answer: 0.1 µM

Question: How did the IC50 turn out when `Cc1ccc(OCCCOc2ccc3c(O)c([N+](=O)[O-])c(=O)oc3c2)c([N+](=O)[O-])c1` [Example 137, 4-Hydroxy-7-(3-[4-methyl-2-nitrophenoxy]propoxy)-3-nitrocoumarin] was run?
Answer: 10 µM

Question: `CCCc1c(OCCCOc2ccccc2)ccc2c(O)c([N+](=O)[O-])c(=O)oc12` [Example 131, 4-Hydroxy-3-nitro-7-(3-phenoxy-propoxy) 8-n-propylcoumarin] was tested. Which IC50 did it give?
Answer: 1 µM

Question: Which IC50 does the source give for `O=c1oc2cc(OCCCOc3ccc(Cl)cc3)ccc2c(O)c1[N+](=O)[O-]` [Example 133, 7-(3-[4-Chlorophenoxy]propxy-4-hydroxy-3-nitrocoumarin] here?
Answer: 1 µM

Question: How did the IC50 turn out when `N#Cc1ccc(OCCCOc2ccc3c(O)c([N+](=O)[O-])c(=O)oc3c2)cc1` [Example 160, 7-(3[4-Cyanophenoxy]-propoxy)-4-hydroxy-3-nitrocoumarin] was run?
Answer: 10 µM

Question: Which IC50 does the source give for `Cc1ccc(CCCCOc2ccc3c(O)c([N+](=O)[O-])c(=O)oc3c2)cc1` [Example 123, 4-Hydroxy-7-(4-[4-methylphenyl]butoxy)-3-nitrocoumarin] here?
Answer: 1 µM

Question: `COc1ccc(OCCCOc2ccc3c(O)c([N+](=O)[O-])c(=O)oc3c2)cc1` [Example 158, 4-Hydroxy-7-(3-[4-methoxyphenoxy]propoxy)-3-nitrocoumarin] was tested. Which IC50 did it give?
Answer: 1 µM

Question: Which IC50 does the source give for `O=c1oc2cc(OCCOc3ccccc3)ccc2c(O)c1[N+](=O)[O-]` [Example 126, 4-Hydroxy-3-nitro-7-(2-phenoxyethoxy) coumarin] here?
Answer: 10 µM

Question: `Cc1cc(OCCCOc2ccccc2)cc2oc(=O)c([N+](=O)[O-])c(O)c12` [Example 130, 4-Hydroxy-5-methyl-3-nitro-7-(3-phenoxypropoxy)] was tested. Which IC50 did it give?
Answer: 1 µM

Question: With `O=c1oc2cc(OCCCCOc3ccccc3)ccc2c(O)c1[N+](=O)[O-]` [Example 150, 4-Hydroxy-3-nitro-7-(4-phenoxybutoxy)-coumarin] as the compound, how does the IC50 read?
Answer: 1 µM

Question: `CCc1cc2c(O)c([N+](=O)[O-])c(=O)oc2cc1OCCCOc1ccccc1` [Example 132, 6-Ethyl-4-hydroxy-3-nitro-7-(3-phenoxy-propoxy) coumarin] was tested. Which IC50 did it give?
Answer: 10 µM

Question: Which IC50 does the source give for `O=c1oc2ccc(OCCCOc3ccccc3)cc2c(O)c1[N+](=O)[O-]` [Example 128, 4-Hydroxy-3-nitro-6-(3-phenoxypropoxy) coumarin] here?
Answer: 1 µM

Question: Which IC50 does the source give for `O=c1oc2cc(OCCCCc3ccc(Cl)cc3)ccc2c(O)c1[N+](=O)[O-]` [Example 122, 7-(4-[4-Chlorophenyl]butoxy)-4-hydroxy-3-nitrocoumarin] here?
Answer: 1 µM

Question: `CC(=O)c1ccc(OCCCOc2ccc3c(O)c([N+](=O)[O-])c(=O)oc3c2)cc1` [Example 136, 7-(3-[4-Acetylphenoxy]propoxy)-4-hydroxy-3-nitrocoumarin] was tested. Which IC50 did it give?
Answer: 1 µM

Question: `O=c1oc2cc(OCCCOc3ccccc3)ccc2c(O)c1[N+](=O)[O-]` [Example 129, 4-Hydroxy-3-nitro-7-(3-phenoxypropoxy) coumarin] was tested. Which IC50 did it give?
Answer: 1 µM

Question: Which IC50 does the source give for `O=C(O)c1ccc(OCCCOc2ccc3c(O)c([N+](=O)[O-])c(=O)oc3c2)cc1` [Example 134, 7-(3-[4-Carboxyphenoxy]propoxy)-4-hydroxy-3-nitrocoumarin] here?
Answer: 10 µM

Question: With `O=c1oc2ccc(OCCc3ccccc3)cc2c(O)c1[N+](=O)[O-]` [Example 115, 4-Hydroxy-3-nitro-6-(2-phenylethoxy) coumarin] as the compound, how does the IC50 read?
Answer: 10 µM

Question: How did the IC50 turn out when `COC(=O)c1ccc(OCCCOc2ccc3c(O)c([N+](=O)[O-])c(=O)oc3c2)cc1` [Example 135, 7-(3-[4-Carbomethoxyphenoxy]propoxy)-4-hydroxy-3-nitrocoumarin] was run?
Answer: 10 µM

Question: With `O=c1oc2cc(OCCCc3ccccc3)ccc2c(O)c1[N+](=O)[O-]` [Example 119, 4-Hydroxy-3-nitro-7-(3-phenylpropoxy) coumarin] as the compound, how does the IC50 read?
Answer: 1 µM

Question: For `O=c1oc2ccc(OCCCCCCOc3ccccc3)cc2c(O)c1[N+](=O)[O-]` [Example 153, 4-hydroxy-3-nitro-6-(6-phenoxyhexoxy) coumarin], which IC50 is on record?
Answer: 0.1 µM

Question: How did the IC50 turn out when `O=C(O)c1ccc(OCC(O)COc2ccc3c(O)c([N+](=O)[O-])c(=O)oc3c2)cc1` (centres unmarked) [Example 140, 7-(3-[4-Carboxyphenoxy]-2-hydroxy-propoxy)-4-hydroxy-3-nitrocoumarin] was run?
Answer: 10 µM

Question: Which IC50 does the source give for `O=c1oc2cc(OCCCOc3ccc4c(c3)CCCC4)ccc2c(O)c1[N+](=O)[O-]` [Example 162, 4-Hydroxy-3-nitro-7-(3-[5,6,7,8-tetrahydro-2-naphthyloxy]propoxy) coumarin] here?
Answer: 10 µM

Question: How did the IC50 turn out when `O=c1oc2cc(OCC(O)COc3ccccc3)ccc2c(O)c1[N+](=O)[O-]` (centres unmarked) [Example 141, 4-Hydroxy-7-(2-hydroxy-3-phenoxypropoxy)-3-nitrocoumarin] was run?
Answer: 10 µM

Question: How did the IC50 turn out when `O=c1oc2cc(OCCCOc3ccc(F)cc3)ccc2c(O)c1[N+](=O)[O-]` [Example 159, 7-(3-[4-Fluorophenoxy]propoxy)-4-hydroxy-3-nitrocoumarin] was run?
Answer: 0.1 µM

Question: For `O=c1oc2cc(OCCCCCOc3ccccc3)ccc2c(O)c1[N+](=O)[O-]` [Example 152, 4-Hydroxy-3-nitro-7-(5-phenoxypentoxy)-coumarin], which IC50 is on record?
Answer: 1 µM

Same assay, conditions: second results table, unit inferred; isolated guinea pig ileum, rat SRS-A; read-out: SRS-A antagonism on Guinea Pig ileum: Approximate concentration to give 50% inhibition of a less than maximal response to SRS-A

Question: How did the IC50 turn out when `Cc1cc2c(cc1OCCCOc1ccccc1)C(=O)C([N+](=O)[O-])C2=O` (centres unmarked) [Example 185, 5-Methyl-2-nitro-6-(3-phenoxypropoxy)indan-1,3-dione] was run?
Answer: 1 µM

Question: With `N#CC1C(=O)c2ccc(OCCc3ccccc3)cc2C1=O` (centres unmarked) [Example 189, 2-Cyano-5-(2-phenylethoxy)indan-1,3-dione] as the compound, how does the IC50 read?
Answer: 1 µM
